Results from patent US9441017B2, “Water-soluble polypeptides comprised of repeat modules, method for preparing the same and method for a target-specific polypeptide and analysis of biological activity thereof” (priority 2011, dated 2016).
Entries after “also recorded” stand apart in the source; their conditions may differ.

Legend:
[1] = tested on: LPS signal transduction in differentiated THP-1 cells; assay: TNF-α secretion of LPS-treated, PMA-differentiated THP-1 cells by ELISA; format: cell-based, human; conditions: differentiated THP-1, 20 ng/ml LPS, 6 hours
Experimental: First, THP-1 monocyte (TIB-202TM, ATCC) was cultured in RPMI containing 10% FBS (Fetal Bovine Serum) and 50 µM 2-mercaptoethanol at 37° C. and 5% CO2. When cell density reached 90%, they were washed with a DPBS buffer solution (pH 7.4). Then, to increase the sensitivity to LPS, the cells were suspended in a medium supplemented with 200 nM PMA (phorbol 12-myristate-13-acetate), and aliquoted to a 96-well plate in a density of 2.5×10^4/well, followed by incubation for 72 hours at 37° C. and 5% CO2 for differentiation.
Prior to the experiment, 10 μg/ml of InlB-VLR and MD-2-added RPMI medium, and 10 μg/ml of MD-2 and 10 μg/ml of IVLR-added medium, 10 μg/ml of TV3-added medium, and 10 μg/ml of TV-3 and MD-2-added medium as control groups were prepared and left at 37° C. for 1 hour. Then, THP-1 differentiated into macrophage by PMA was washed with DPBS buffer solution (pH 7.4) three times, and the sample-containing RPMI media were treated with 20 ng/ml of LPS and THP-1, followed by incubation at 37° C. and 5% CO2 for 6 hours. After 6 hours, a predetermined amount of culture was taken from each well, and diluted 4-8 fold using DPBS buffer solution (pH 7.4), followed by ELISA (Enzyme-Linked Immunosorbent Assays) for the secreted TNF-α.
Monocyte THP-1 (TIB-202TM, ATCC) was cultured in RPMI media supplemented with 10% Fetal Bovine Serum (FBS) and 50 µM of 2-mercaptoethanol at 37° C. and 5% CO2. When the cells reached 90% confluence, they were washed with PBS buffer solution (pH 7.4). In order to increase LPS sensitivity, the cells were suspended in RPMI media containing 200 nM of PMA (phorbol 12-myristate-13-acetate), and plated in a 96-well plate at a density of 2.5×10^4 cells/well, and differentiated at 37° C. and 5% CO2 for 72 hours.
Prior to the experiment, the LPS inhibitor polymyxin B was diluted in RPMI at a concentration of 1-100 μg/ml, and incubated at 37° C. for 1 hour. […] The results were calculated from a standard curve of TNF-α.

[2] = reported, Akashi et al. 2003; read-out: binding affinity (Kd) for LPS; cited from earlier work
[3] = tested on: TLR4/MD-2 receptor activation by LPS; assay: NF-κB firefly/Renilla luciferase reporter assay in HEK293/hTLR4A-MD2-CD14 cells; format: cell-based, human; conditions: HEK293/hTLR4A-MD2-CD14, 10 ng/ml LPS, 6 hours
Experimental: In order to monitor activation of TLR4-MD-2 receptor by LPS, an HEK293/hTLR4A-MD2-CD14 cell line (Invivogen) stably expressing TLR4 and MD2, CD14 genes, prepared by introduction of the genes into HEK293 cell, was used. The HEK293/hTLR4A-MD2-CD14 cell line was subcultured in an RPMI medium (Invitrogen) supplemented with 10% Fetal Bovine Serum (FBS) in an incubator at 37° C. and 5% CO2, and then used for the experiment.
In the present invention, the LPS inhibitor, polymyxin B (Invivogen) and the LPS antagonist, LPS-RS (Invivogen) were diluted in RPMI media at a concentration of 0.01-100 μg/ml, and reacted with 10 ng/ml of LPS at 37° C. for 1 hour. […]
First, the media were removed from the 24-well plate, and the plate was washed with a PBS buffer solution twice, and then 200 μl of passive lysis buffer (PLB) was added to each well for cell lysis. After 30 minutes, 20 μl of cell lysate was transferred to a new 96 well-plate, and then 100 μl of LAR II reagent containing a substrate of firefly luciferase was added to measure luminescence using a VICTOR X Multilabel Plate Reader (PerkinElmer) for 0.5 seconds. After measurement of firefly luciferase luminescence, 100 μl of STOP & GLO reagent containing a substrate of Renilla luciferase was added to measure Renilla luciferase luminescence for 0.5 second. […]

Substance	inhibitory effect on LPS signal transduction (TNF-α secretion) [1]	Kd [2]	inhibitory effect on LPS signal transduction (relative firefly luciferase activity) [3]
MD-2: Myeloid differentiation protein-2, also called lymphocyte antigen 96, a glycoprotein that binds LPS	weak inhibitory effect	65 nM	–
TLR4/MD-2 complex: complex of Toll-like receptor 4 with MD-2	–	3 nM	–
polymyxin B	reduction in TNF-α secretion; also recorded: reduction in LPS signal transduction	–	relatively reduced luciferase activity; also recorded: relative reduction of firefly luciferase activity
sTLR4: soluble extracellular domain of cell membrane receptor TLR4	no LPS blocking activity	–	no LPS blocking activity
